Data taken from patent US9902740B2, “Macrocyclic benzodiazepine dimers, conjugates thereof, preparation and uses” (BRISTOL-MYERS SQUIBB COMPANY, priority 2015, dated 2018).
Read-outs that look alike come from different tables or passages of the source.

Experiments:
Type in all cases: cell-based
[1] = system: N87 human gastric cancer cell line; assay: Cytotoxic activity of dimers against N87 cells; conditions: for IC50: read-out: Cell Line (IC50, nM) N87; for EC50: Table 5 comparative activities, N87
Description: (§1) H226 is a human lung cancer cell line. N87 is a human gastric cancer cell line. OVCAR3 is a human ovarian cancer cell line. HCT116 is a human colon cancer cell line. HCT116/VM46 is a human colon cancer cell line that is multi-drug and paclitaxel resistant.

[2] = system: H226 human lung cancer cell line; assay: Cytotoxic activity of dimers against H226 cells; conditions: for EC50: Table 5 comparative activities, H226
Description: as §1

[3] = system: OVCAR3 human ovarian cancer cell line; assay: Cytotoxic activity of dimers against OVCAR3 cells; conditions: for EC50: Table 5 comparative activities, OVCAR3
Description: as §1

[4] = system: HCT116 human colon cancer cell line; assay: Cytotoxic activity of dimers against HCT116 cells
Description: as §1

[5] = system: HCT116/VM46 human colon cancer cell line (multi-drug and paclitaxel resistant); assay: Cytotoxic activity of dimers against HCT116/VM46 cells
Description: as §1

[6] = Table 4, N87 human gastric cancer cell line
[7] = Table 4, H226 human lung cancer cell line, read-out: Cell Line (IC50, nM) H226
[8] = Table 4, OVCAR3 human ovarian cancer cell line, read-out: Cell Line (IC50, nM) OVCAR3
[9] = Homo sapiens, NCI-H226, read-out: Cell Line (IC50, nM) H226
[10] = Homo sapiens, OVCAR-3, read-out: Cell Line (IC50, nM) OVCAR3
[11] = Homo sapiens, HCT-116/VM46, Table 4

| SMILES | IC50 [1, 6] [nM] | IC50 [2, 7] [nM] | IC50 [3, 8] [nM] | IC50 ([4]; Table 4) [nM] | IC50 ([5]; Table 4) [nM] | other results |
| --- | --- | --- | --- | --- | --- | --- |
| O=C1c2cc3c(cc2N=C[C@@H]2Cc4ccccc4CN12)OCCCOc1cc2c(cc1OCCOCCOCCO3)C(=O)N1Cc3ccccc3C[C@H]1C=N2 [IIb-4] | 0.14 | 0.15 | 0.2 | 0.068 | 2 | – |
| C=C1C[C@H]2C=Nc3cc4c(cc3C(=O)N2C1)OCCCCCCCCOc1cc2c(cc1OCCCO4)N=C[C@@H]1Cc3ccc(N)cc3CN1C2=O [IId-2] | 1.1 | 0.56 | 0.71 | 0.11 | 2.8 | – |
| CN1CCN(c2ccc(C3=CN4C(=O)c5cc6c(cc5NC[C@@H]4C3)OCCCOc3cc4c(cc3OCCCCCCCCO6)C(=O)N3C=C(c5ccc(N6CCN(C)CC6)cc5)C[C@H]3C=N4)cc2)CC1 [IId-3] | – | – | – | – | – | IC50 ([1]; Homo sapiens): 0.072 nM; IC50 [2, 9]: 0.035 nM; IC50 [3, 10]: 0.26 nM; IC50 ([4]; HCT-116, Table 4): 0.045 nM; IC50 [5, 11]: 0.033 nM |
| CN1CCN(c2ccc(C3=CN4C(=O)c5cc6c(cc5NC[C@@H]4C3)OCCCOc3cc4c(cc3OCCCCCCCCO6)C(=O)N3C=C(c5ccc(N6CCN(C)CC6)cc5)C[C@H]3CN4)cc2)CC1 [IId-4] | 12 | 8.1 | 20 | 2 | 4.8 | – |
| O=C1c2cc3c(cc2N=C[C@@H]2Cc4ccccc4CN12)OCCCOc1cc2c(cc1OCCCCCCCCCCO3)C(=O)N1Cc3ccccc3C[C@H]1C=N2 [IIb-2] | 2.5 | 3 | 1.3 | – | 17 | – |
| O=C1c2cc3c(cc2N=C[C@@H]2Cc4ccccc4N12)OCCCOc1cc2c(cc1OCCCCCCCCCCO3)C(=O)N1c3ccccc3C[C@H]1C=N2 [IIb-3] | 11 | 5.9 | 3.5 | – | 13 | – |
| O=C1c2cc3c(cc2N=C[C@@H]2CCCN12)OCCCOc1cc2c(cc1OCCCC/C=C/CCCCO3)C(=O)N1CCC[C@H]1C=N2 [IIa-9] | 13 | 12 | 12 | – | – | EC50 [1]: 13 nM; EC50 [2]: 12 nM; EC50 [3]: 12 nM |
| O=C1c2cc3c(cc2N=C[C@@H]2CCCN12)OCCCOc1cc2c(cc1OCCCCCCCCCO3)C(=O)N1CCC[C@H]1C=N2 [IIa-3] | 8.3 | 8.7 | 7.3 | – | – | EC50 [1]: 8.3 nM; EC50 [2]: 8.7 nM; EC50 [3]: 7.3 nM |
| O=C1c2cc3c(cc2N=C[C@@H]2CCCN12)OCCCOc1cc2c(cc1OCCCCCCCO3)C(=O)N1CCC[C@H]1C=N2 [IIa-1] | 4.6 | 8.1 | 3.4 | – | 74 | EC50 [1]: 4.6 nM; EC50 [2]: 8.1 nM; EC50 [3]: 3.4 nM |
| C=C1C[C@H]2C=Nc3cc4c(cc3C(=O)N2C1)OCCOCCOCCOc1cc2c(cc1OCCCO4)N=C[C@@H]1CC(=C)CN1C2=O [IIa-13] | 40 | 29 | 20 | 32 | 85 | – |
| O=C1c2cc3c(cc2N=C[C@@H]2Cc4ccccc4CN12)OCCCOc1cc2c(cc1OCCCCNCCCCO3)C(=O)N1Cc3ccccc3C[C@H]1C=N2 [IIb-5] | 0.35 | 0.45 | 0.6 | 0.077 | 7.3 | – |
| O=C1c2cc3c(cc2N=C[C@@H]2CC(c4ccccc4)=CN12)OCCCOc1cc2c(cc1OCCOCCOCCO3)C(=O)N1C=C(c3ccccc3)C[C@H]1C=N2 [IIc-6] | 1.5 | 1.1 | 1.7 | 0.13 | 6.4 | – |
| CN1CCN(c2ccc(C3=CN4C(=O)c5cc6c(cc5N=C[C@@H]4C3)OCCCOc3cc4c(cc3OCCCCCCCCO6)C(=O)N3C=C(c5ccc(N6CCN(C)CC6)cc5)C[C@H]3C=N4)cc2)CC1 [IIc-8] | 0.034 | 0.047 | 0.35 | 0.006 | 0.076 | – |
| O=C1c2cc3c(cc2N=C[C@@H]2CCCN12)OCCCOc1cc2c(cc1OCCCCCCCCCCCO3)C(=O)N1CCC[C@H]1C=N2 [IIa-5] | 150 | 69 | 78 | – | – | EC50 [1]: 150 nM; EC50 [2]: 69 nM; EC50 [3]: 78 nM |
| CN1CCN(c2ccc(C3=CN4C(=O)c5cc6c(cc5N=C[C@@H]4C3)OCCCOc3cc4c(cc3OCCCCCCCCO6)C(=O)N3C=C(c5ccc(N)cc5)C[C@H]3C=N4)cc2)CC1 [IIc-10] | 0.36 | 0.044 | 0.36 | 0.022 | 0.071 | – |
| COc1cc2c(cc1OCCCOc1cc3c(cc1OC)C(=O)N1CCC[C@H]1C=N3)N=C[C@@H]1CCCN1C2=O [Dimer A-4, reference compound] | – | – | – | – | – | EC50 ([1]; Homo sapiens): 63 nM; EC50 ([2]; Homo sapiens, NCI-H226): 70 nM; EC50 ([3]; Homo sapiens, OVCAR-3): 56 nM |

| SMILES | IC50 [1, 6] [nM] | IC50 [2, 7] [nM] | IC50 [3, 8] [nM] | IC50 ([4]; Table 4) [nM] | IC50 ([5]; Table 4) [nM] | other results |
| --- | --- | --- | --- | --- | --- | --- |
| COc1ccc(C2=CN3C(=O)c4cc5c(cc4N=C[C@@H]3C2)OCCCOc2cc3c(cc2OCCCCCCCCO5)C(=O)N2C=C(c4ccc(N)cc4)C[C@H]2C=N3)cc1 [IIc-11] | – | – | – | – | – | IC50 ([1]; Homo sapiens): 0.56 nM; IC50 [2, 9]: 0.36 nM; IC50 [3, 10]: 0.31 nM; IC50 ([4]; HCT-116, Table 4): 0.063 nM; IC50 [5, 11]: 0.36 nM |
| C=C1C[C@H]2C=Nc3cc4c(cc3C(=O)N2C1)OCCCCCCCCOc1cc2c(cc1OCCCO4)N=C[C@@H]1CC(=C)CN1C2=O [IIa-12] | 0.89 | 0.32 | 0.52 | – | 4.8 | – |
| O=C1c2cc3c(cc2N=C[C@@H]2CCCN12)OCCCOc1cc2c(cc1OCCCCCCCCCCCCO3)C(=O)N1CCC[C@H]1C=N2 [IIa-6] | 310 | 110 | 140 | – | – | EC50 [1]: 310 nM; EC50 [2]: 110 nM; EC50 [3]: 140 nM |
| COc1ccc(C2=CN3C(=O)c4cc5c(cc4N=C[C@@H]3C2)OCCCOc2cc3c(cc2OCCCCCCCCO5)C(=O)N2C=C(c4ccc(OC)cc4)C[C@H]2C=N3)cc1 [IIc-7] | 0.62 | 0.99 | 1.8 | 0.17 | 1.1 | – |
| O=C1c2cc3c(cc2N=C[C@@H]2CCCN12)OCCCOc1cc2c(cc1OCCCCCCCCO3)C(=O)N1CCC[C@H]1C=N2 [IIa-2] | 2.7 | 1.6 | 1.2 | – | – | EC50 [1]: 2.7 nM; EC50 [2]: 1.6 nM; EC50 [3]: 1.2 nM |
| COc1ccc(C2=CN3C(=O)c4cc5c(cc4N=C[C@@H]3C2)OCCCOc2cc3c(cc2OCCCCCCCCCCCCO5)C(=O)N2C=C(c4ccc(OC)cc4)C[C@H]2C=N3)cc1 [IIc-2] | 230 | 220 | > 250 | 48 | > 250 | – |
| CC1=CN2C(=O)c3cc4c(cc3N=C[C@@H]2C1)OCCCOc1cc2c(cc1OCCCCCCCCO4)C(=O)N1C=C(c3ccc(N)cc3)C[C@H]1C=N2 [IId-1] | – | – | – | – | – | IC50 ([1]; Homo sapiens): 1.4 nM; IC50 [2, 9]: 0.66 nM; IC50 [3, 10]: 1.2 nM; IC50 ([4]; HCT-116, Table 4): 0.14 nM; IC50 [5, 11]: 1.2 nM |
| Nc1ccc(CN2CCCCOc3cc4c(cc3OCCCOc3cc5c(cc3OCCCC2)C(=O)N2Cc3ccccc3C[C@H]2C=N5)N=C[C@@H]2Cc3ccccc3CN2C4=O)cc1 [IIb-8] | 0.27 | 0.13 | 0.25 | 0.015 | 1.2 | – |
| O=C1c2cc3c(cc2N=C[C@@H]2CCCN12)OCCCCCOc1cc2c(cc1OCCCCCCCCCCCCO3)C(=O)N1CCC[C@H]1C=N2 [IIa-8] | 15 | 10 | 9.9 | – | – | EC50 [1]: 15 nM; EC50 [2]: 10 nM; EC50 [3]: 9.9 nM |
| O=C1c2cc3c(cc2N=C[C@@H]2Cc4ccccc4CN12)OCCCOc1cc2c(cc1OCCCCCCCCO3)C(=O)N1Cc3ccccc3C[C@H]1C=N2 [IIb-1] | 0.53 | 0.22 | 0.33 | – | 1.3 | – |
| Nc1ccc2c(c1)CN1C(=O)c3cc4c(cc3N=C[C@@H]1C2)OCCCOc1cc2c(cc1OCCCCCCCCO4)C(=O)N1Cc3ccccc3C[C@H]1C=N2 [IIb-6] | – | – | – | – | – | IC50 ([1]; Homo sapiens): 0.25 nM; IC50 [2, 9]: 0.21 nM; IC50 [3, 10]: 0.21 nM; IC50 ([4]; HCT-116, Table 4): 0.016 nM; IC50 [5, 11]: 0.66 nM |
| CN1CCN(c2ccc(C3=CN4C(=O)c5cc6c(cc5N=C[C@@H]4C3)OCCCOc3cc4c(cc3OCCCCCCCCO6)C(=O)N3C=C(c5ccc(N6CCNCC6)cc5)C[C@H]3C=N4)cc2)CC1 [IIc-9] | – | – | – | – | – | IC50 ([1]; Homo sapiens): 0.68 nM; IC50 [2, 9]: 0.33 nM; IC50 [3, 10]: 1 nM; IC50 ([4]; HCT-116, Table 4): 0.063 nM; IC50 [5, 11]: 0.16 nM |
| O=C1c2cc3c(cc2N=C[C@@H]2CCCN12)OCCCCCOc1cc2c(cc1OCCCCCCCCCCCO3)C(=O)N1CCC[C@H]1C=N2 [IIa-7] | 87 | 12 | 14 | – | – | EC50 [1]: 87 nM; EC50 [2]: 12 nM; EC50 [3]: 14 nM |
| C=C1C[C@H]2C=Nc3cc4c(cc3C(=O)N2C1)OCCCC/C=C/CCCCOc1cc2c(cc1OCCCO4)N=C[C@@H]1CC(=C)CN1C2=O [IIa-10] | 2.3 | 2 | 0.47 | – | 11 | – |
| O=C1c2cc3c(cc2N=C[C@@H]2CC(c4ccccc4)=CN12)OCCCOc1cc2c(cc1OCCCCCCCCCCO3)C(=O)N1C=C(c3ccccc3)C[C@H]1C=N2 [IIc-1] | 12 | 12 | 7.6 | – | 30 | – |
| O=C1c2cc3c(cc2N=C[C@@H]2CCCN12)OCCCOc1cc2c(cc1OCCCCCCCCCCO3)C(=O)N1CCC[C@H]1C=N2 [IIa-4] | 22 | 12 | 20 | – | – | EC50 [1]: 22 nM; EC50 [2]: 12 nM; EC50 [3]: 20 nM |
